Measured values: patent US20040198707A1, “Means and method for hormonal contraception” (priority 2001, published 2004)

Experiment: conversion factors for progestogens: amount equivalent to a given amount of levonorgestrel
Settings: estimate of the amount of progestogen equivalent to a given amount of levonorgestrel (levonorgestrel = 1)
Text: In order to determine for a specific biogenic estrogen or synthetic estrogen the amounts that are equivalent to a cited amount of ethinyl estradiol or 17beta-estradiol, the method described by Allen and Doisy may suitably be used (Allen A., Doisy E. A., “An ovarian hormone. Preliminary report on its localization, extraction and partial purification, and action in test animals. JAMA (1923), 81, 819-821). Similarly, in order to determine for a given progestogen the amount equivalent to cited amount of levonorgestrel the method originally described by McPhail can be used (Mc Phail M. K. “The assay of progestin” J Physiol (1934), 83, 145-156). A more recent description of this method can be found in an article written by Overbeek G. A., de Visser J. “A new substance with progestational activity”, Acta Endocrinol (1956), 22,318-329. It is noted that the aforementioned methods will provide useful indications about the anticipated estrogen potency or progestogen potency of a particular hormone. However, to accurately determine the equivalent amounts that are referred to above, it is advisable to additionally conduct in vivo studies in human females.
For guidance the table below provides the conversion factors for a number of progestogens that may suitably be used in the method of the invention. These conversion factors may be used to calculate, for each progestogen mentioned in the table, an estimate of the amount of said progestogen which is equivalent to a given amount of levonorgestrel.

C#C[C@]1(OC(C)=O)CC[C@H]2[C@@H]3CCC4=CC(=NO)CC[C@@H]4[C@H]3CC[C@@]21CC (mixture of isomers) [norgestimate]
Conversion factor: 1.7

CC(=O)[C@H]1CC[C@H]2[C@@H]3C=CC4=CC(=O)CC[C@@]4(C)[C@@H]3CC[C@]12C [dydrogesterone]
Conversion factor: 133

C[C@]12CCC(=O)C=C1[C@@H]1C[C@@H]1[C@H]1[C@@H]3[C@@H]4C[C@@H]4[C@@]4(CCC(=O)O4)[C@@]3(C)CC[C@@H]12 [drospirenone]
Conversion factor: 20

C#C[C@]1(O)CC[C@H]2[C@@H]3CCC4=CC(=O)CC[C@@H]4[C@H]3CC[C@@]21C [norethisterone]
Conversion factor: 7
